# Test results as given in patent publication US11912710B2 (UPPTHERA, INC., priority 2021, dated 2024).
# What was measured:
# Assay type in all cases: cell-based
# [1] = molecular target: T1, PLK1 (Homo sapiens, UniProt P53350); test: Luciferase assay for PLK1 in HeLa LgBit (Plk1-HiBit KI) cell line; conditions: 300 nM compound, luminescence after 9 hours, read-out: Activity: ratio of the luminescense value of compound treatment group to DMSO treatment group
# T1 construct: endogenous in cells; host or cells: HeLa LgBit (Plk1-HiBit KI): HeLa cells stably expressing LgBit, with HiBit knocked into the endogenous Plk1 locus by CRISPR/Cas9
# Procedure, shortened: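 HeLa cells stably expressing LgBit, with HiBit knocked in at the C-terminus of endogenous Plk1, released from a 24 h 2 mM thymidine block and grown 18 h. Endurazine added, then compound at 300 nM; luminescence tracked in real time, expressed as ratio to DMSO.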
# [2] = system: NCI-H526 cell line; test: Cell viability assay for H526 cell line; conditions: Homo sapiens, NCI-H526, 120 h; H526 cells, 5 days, EZ-Cytox, 3000 nM to 0.46 nM
# Procedure, shortened: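 NCI-H526 cells exposed to compounds for 5 days in a CO2 incubator; viability read as absorbance at 450 nm after 3 min plate shaking; IC50 derived from treatment response.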
# [3] = system: MRC-5 cell line; test: Cell viability assay (cytotoxicity) for MRC-5 cell line; conditions: Homo sapiens, MRC5, 120 h; MRC-5 normal cell line, 5 days, EZ-Cytox, 10000 nM to 1.52 nM; read-out: Activity: IC50 value to MRC-5 cell line (Exemplary Compounds)
# Description: 4. Cell Viability Assay for MRC-5 Cell Line
# (1) Culture of MRC-5 Cell Line
# Passage of cultured cells was maintained within P15.
# (2) Treatment of Compounds of the Present Invention
# Then, it was cultured in 37° C.
# (3) Cytotoxicity Experiment
# CO2 incubator for 4 hours.
# Cell Viability Assay for MRC-5 cell line
# T1 sequence (P53350 whole entry): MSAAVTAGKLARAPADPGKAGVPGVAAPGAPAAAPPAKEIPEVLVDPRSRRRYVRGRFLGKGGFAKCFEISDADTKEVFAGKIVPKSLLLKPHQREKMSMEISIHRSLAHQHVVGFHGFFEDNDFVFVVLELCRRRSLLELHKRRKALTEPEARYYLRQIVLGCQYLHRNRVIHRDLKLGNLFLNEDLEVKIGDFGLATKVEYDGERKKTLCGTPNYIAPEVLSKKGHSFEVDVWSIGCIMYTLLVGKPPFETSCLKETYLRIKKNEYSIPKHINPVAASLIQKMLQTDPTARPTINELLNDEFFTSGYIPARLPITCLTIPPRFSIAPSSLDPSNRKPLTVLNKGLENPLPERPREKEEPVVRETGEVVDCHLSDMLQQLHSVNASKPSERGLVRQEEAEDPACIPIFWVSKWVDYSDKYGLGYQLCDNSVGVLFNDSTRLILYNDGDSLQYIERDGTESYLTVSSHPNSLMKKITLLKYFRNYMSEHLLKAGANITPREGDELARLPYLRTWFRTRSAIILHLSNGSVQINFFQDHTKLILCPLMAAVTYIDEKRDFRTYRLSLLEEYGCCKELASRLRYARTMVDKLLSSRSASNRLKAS
Structure (SMILES),remaining activity at 0.3 µM [1] [%],IC50 [2] [µM],IC50 [3] [µM]
"COc1cc(C(=O)NC2CC3(CCN(CC4CCN(c5ccc(N6CCC(=O)NC6=O)cc5)CC4)CC3)C2)ccc1Nc1ncc2c(n1)N(C1CCCC1)CC(F)(F)C(=O)N2C [Compound 33, 4-((9-cyclopentyl-7,7-difluoro-5-methyl-6-oxo-6,7,8,9-tetrahydro-5H-pyrimido[4,5-b][1,4]diazepin-2-yl)amino)-N-(7-((1-(4-(2,4-dioxotetrahydropyrimidin-1(2H)-yl)phenyl)piperidin-4-yl)methyl)-7-azaspiro[3.5]nonan-2-yl)-3-methoxybenzamide]",< 70,< 0.03,> 10
"COc1cc(C(=O)NCC2CC23CCN(CC2CCN(c4ccc(C5CCC(=O)NC5=O)cc4F)CC2)CC3)ccc1Nc1ncc2c(n1)N(C1CCCC1)CC(F)(F)C(=O)N2C (stereo not drawn) [Compound 24, 4-((9-cyclopentyl-7,7-difluoro-5-methyl-6-oxo-6,7,8,9-tetrahydro-5H-pyrimido[4,5-b][1,4]diazepin-2-yl)amino)-N-((6-((1-(4-(2,6-dioxopiperidin-3-yl)-2-fluorophenyl)piperidin-4-yl)methyl)-6-azaspiro[2.5]octan-1-yl)methyl)-3-methoxybenzamide]",< 30,< 0.05,> 10
"COc1cc(C(=O)NC2CCC(CN(C)C3CCN(c4ccc(C5CCC(=O)NC5=O)cc4F)CC3)CC2)ccc1Nc1ncc2c(n1)N(C1CCCC1)CC(F)(F)C(=O)N2C (stereo not drawn) [Compound 8, 4-((9-cyclopentyl-7,7-difluoro-5-methyl-6-oxo-6,7,8,9-tetrahydro-5H-pyrimido[4,5-b][1,4]diazepin-2-yl)amino)-N-((1r,4r)-4-(((1-(4-(2,6-dioxopiperidin-3-yl)-2-fluorophenyl)piperidin-4-yl)(methyl)amino)methyl)cyclohexyl)-3-methoxybenzamide]",< 30,< 0.03,> 10
"COc1cc(C(=O)NC2CCN(C(=O)CCCOc3cccc(C4CCC(=O)NC4=O)c3)CC2)c(F)cc1Nc1ncc2c(n1)N(C1CCCC1)CC(F)(F)C(=O)N2C (stereo not drawn) [Compound 2, 4-((9-cyclopentyl-7,7-difluoro-5-methyl-6-oxo-6,7,8,9-tetrahydro-5H-pyrimido[4,5-b][1,4]diazepin-2-yl)amino)-N-(1-(4-(3-(2,6-dioxopiperidin-3-yl)phenoxy)butanoyl)piperidin-4-yl)-2-fluoro-5-methoxybenzamide]",< 60,< 0.05,> 10
